Laboratory results reported in patent publication US6855730B2, “3-methylidenyl-2-indolinone modulators of protein kinase” (Sugen, Inc., priority 1998, dated 2005).

Legend:
PDGFR-β = molecular target: T1, PDGFR-β (Homo sapiens, UniProt P09619); assay: Biochemical PDGFR assay (ELISA, PDGFR-β expressing NIH 3T3 cell lysate); conditions: read-out: bio PDGF IC50
T1 construct: host or cells: NIH 3T3
Description: This assay measures the in vitro kinase activity of PDGFR using ELISA.
Unless otherwise noted, the preparation of working solution-of the following reagents is the same as that for the Biochemical EGFR assay, above. • 1. […] 28D4C10 monoclonal anti-PDGFR antibody (Biochemistry Lab, SUGEN, Inc.). • 3. PBS (Dulbecco's Phosphate-Buffered Saline, Gibco Catalog No. 450-1300EB) • 4. TBST Buffer. • 5. Blocking Buffer. • 6. PDGFR-β expressing NIH 3T3 cell lysate (Screening Lab, SUGEN, Inc.). • 7. TBS Buffer. • 8. TBS+10% DMSO. • 9. […] MnCl2. • 11. Kinase buffer phosphorylation mix.
• 12. NUNC 96-well V bottom polypropylene plates (Applied Scientific Cat. No. AS-72092). • 13. Ethylenediaminetetraacetic acid (EDTA). • 14. Rabbit polyclonal anti-phosphotyrosine serum (Biochemistry Lab, SUGEN, Inc.). • 15. Goat anti-rabbit IgG peroxidase conjugate (Biosource Cat. No. ALI0404). • 16. 2,2′-azino-bis(3-ethylbenzthiazoline-6-sulfonic acid) (ABTS, Sigma Cat. No. A-1888). • 17. Hydrogen peroxide 30% solution (Fisher Cat. No. H325). • 18. ABTS/H2O2. • 19. 0.2 M HCl.
Procedure • 1. Coat Corning 96 well ELISA plates with 0.5 μg 28D4C10 in 100 μl PBS per well, store overnight at 4° C. • 2. Remove unbound 28D4C10 from wells by inverting plate to remove liquid. Wash 1× with dH2O. Pat the plate on a paper towel to remove excess liquid. • 3. Add 150 μl of Blocking Buffer to each well. Incubate for 30 min. at room temperature with shaking. • 4. Wash plate 3× with deionized water, then once with TBST. Pat plate on a paper towel to remove excess liquid and bubbles. • 5. Dilute lysate in HNTG (10 μg lysate/100 μl HNTG) • 6. Add 100 μl of diluted lysate to each well. Shake at room temperature for 60 min. • 7. Wash plates as described in 4, above. • 8. Add 80 μl working kinase buffer mix to ELISA plate containing captured PDGFR. • 9. Dilute test compound 1:10 in TBS in 96-well polypropylene plates (i.e., 10 μl compound+90 μl TBS). • 10. Add 10 μl diluted test compound to ELISA plate. […] Incubate for 30 minutes while shaking at room temperature. • 12. Add 10 μl ATP directly to all wells except negative control well (final well volume should be approximately 100 μl with 20 μM ATP in each well.) Incubate 30 minutes while shaking. • 13. After 30 minutes, stop reaction by adding 10 μl of 200 mM EDTA (pH 8.0) to each well. • 14. Wash 4× with deionized water, twice with TBST. • 15. Add 100 μl anti-phosphotyrosine (1:3000 dilution in TBST) per well. Incubate 30-45 min. at room temperature, with shaking. • 16. Wash as described in 4, above. • 17. Add 100 μl Biosource Goat anti-rabbit IgG peroxidase conjugate (1:2000 dilution in TBST) to each well. Incubate 30 min. at room temperature, with shaking. • 18. Wash as described in 4, above. • 19. Add 100 μl of ABTS/H2O2 solution to each well. • 20. Incubate 10 to 30 minutes with shaking. Remove any bubbles. • 21. If necessary stop reaction with the addition of 100 μl 0.2 M HCl per well. • 22. Read assay on Dynatech MR7000 ELISA reader: test filter: 410 nM, reference filter: 630 nM.

EGFR = EGFR (Homo sapiens, UniProt P00533); assay: Biochemical EGFR assay (ELISA, A431 cell lysate); design: A431 cell lysate (Screening Lab, SUGEN, Inc.); host or cells: A431; conditions: read-out: bio EGFr IC50
EGFR, sequence (P00533 25-1210): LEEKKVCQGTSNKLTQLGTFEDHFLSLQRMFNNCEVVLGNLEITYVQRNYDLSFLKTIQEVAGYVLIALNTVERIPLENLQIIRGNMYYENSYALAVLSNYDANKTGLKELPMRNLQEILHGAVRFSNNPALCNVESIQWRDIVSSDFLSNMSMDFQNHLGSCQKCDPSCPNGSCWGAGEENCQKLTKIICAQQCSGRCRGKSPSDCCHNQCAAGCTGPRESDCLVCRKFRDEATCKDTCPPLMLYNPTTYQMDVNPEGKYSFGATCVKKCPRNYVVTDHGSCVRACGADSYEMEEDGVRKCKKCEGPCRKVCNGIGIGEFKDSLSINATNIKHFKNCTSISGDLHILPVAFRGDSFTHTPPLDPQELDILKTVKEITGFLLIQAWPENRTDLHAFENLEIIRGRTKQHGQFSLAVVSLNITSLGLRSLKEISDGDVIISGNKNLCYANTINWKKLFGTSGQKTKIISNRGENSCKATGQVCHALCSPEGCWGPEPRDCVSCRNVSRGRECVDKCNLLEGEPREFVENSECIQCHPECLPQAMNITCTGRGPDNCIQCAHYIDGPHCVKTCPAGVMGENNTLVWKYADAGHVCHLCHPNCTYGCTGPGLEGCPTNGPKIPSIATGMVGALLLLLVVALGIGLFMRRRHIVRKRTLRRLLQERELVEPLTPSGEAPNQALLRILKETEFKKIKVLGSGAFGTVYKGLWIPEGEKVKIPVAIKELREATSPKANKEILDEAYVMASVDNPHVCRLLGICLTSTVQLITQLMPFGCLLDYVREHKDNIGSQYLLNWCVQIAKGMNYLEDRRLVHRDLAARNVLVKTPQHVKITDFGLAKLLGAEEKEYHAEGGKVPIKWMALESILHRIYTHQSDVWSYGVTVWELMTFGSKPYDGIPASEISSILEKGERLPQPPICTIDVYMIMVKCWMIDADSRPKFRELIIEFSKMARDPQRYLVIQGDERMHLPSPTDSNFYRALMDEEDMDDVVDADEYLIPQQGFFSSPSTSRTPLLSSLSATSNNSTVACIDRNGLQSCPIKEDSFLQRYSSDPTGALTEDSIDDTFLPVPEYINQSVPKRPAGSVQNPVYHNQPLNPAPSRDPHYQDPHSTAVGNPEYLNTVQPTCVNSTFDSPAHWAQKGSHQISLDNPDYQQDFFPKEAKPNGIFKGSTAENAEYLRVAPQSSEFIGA
Description: This assay measures the in vitro kinase activity of EGFR using ELISA.
Materials and Reagents • 1. […] SUMO1 monoclonal anti-EGFR antibody (Biochemistry Lab, SUGEN, Inc.). • 3. PBS (Dulbecco's Phosphate-Buffered Saline, Gibco Catalog No. 450-1300EB). • 4. TBST Buffer
• 6. A431 cell lysate (Screening Lab, SUGEN, Inc.) • 7. TBS Buffer:
Prepare a 1.0 mM solution in dH2O. This reagent should be made up immediately prior to use and kept on ice. • 10. MnCl2.
Prepare a 1.0 M stock solution in dH2O. • 11. ATP/MnCl2 phosphorylation mix
This reagent should be prepared immediately before use and kept on ice. • 12. NUNC 96-well V bottom polypropylene plates (Applied Scientific Cat. No. AS-72092). • 13. Ethylenediaminetetraacetic acid (EDTA)
Prepare 200 mM working solution in dH2O. Adjust to pH 8.0 with 10 N NaOH. • 14. Rabbit polyclonal anti-phosphotyrosine serum (Biochemistry Lab, SUGEN, Inc.) • 15. Goat anti-rabbit IgG peroxidase conjugate (Biosource Cat. No. ALI0404) • 16. ABTS (2,2′-azino-bis(3-ethylbenzthiazoline-6-sulfonic acid), Sigma Cat. No. A-1888).
Mix first two ingredients in about 900 ml dH2O, adjust pH to 4.0 with phosphoric acid. Add ABTS, cover, let sit about 0.5 hr., filter. The solution should be kept in the dark at 4° C. until ready to use. • 17. Hydrogen peroxide 30% solution (Fisher Cat. No. H325) • 18. ABTS/H2O2 • Mix 15 ml ABTS solution and 2.0 μl H2O2. Prepare 5 minutes before use. • 19. 0.2 M HCl
Procedure • 1. Coat Corning 96 well ELISA plates with 0.5 μg SUMO1 in 100 μl PBS per well, store overnight at 4° C. • 2. Remove unbound SUMO1 from wells by inverting plate to remove liquid., Wash 1× with dH2O. Pat the plate on a paper towel to remove excess liquid. • 3. Add 150 μl of Blocking Buffer to each well. Incubate for 30 min. at room temperature with shaking. • 4. Wash plate 3× with deionized water, then once with TBST. Pat plate on a paper towel to remove excess liquid and bubbles. • 5. Dilute lysate in PBS (7 μg lysate/100 μl PBS). • 6. Add 100 μl of diluted lysate to each well. Shake at room temperature for 60 min. • 7. Wash plates as described in 4, above. • 8. Add 120 μl TBS to ELISA plate containing captured EGFR. • 9. Dilute test compound 1:10 in TBS in 96-well polypropylene plates (i.e. 10 μl compound+90 μl TBS). • 10. Add 13.5 μl diluted test compound to ELISA plate. […] Incubate for 30 minutes while shaking at room temperature. • 12. […] After 5 minutes, stop reaction by adding 16.5 μl of 200 mM EDTA (pH 8.0) to each well, shaking continuously. After the EDTA has been added, shake for 1 min. • 14. Wash 4× with deionized water, twice with TBST. • 15. Add 100 μl anti-phosphotyrosine (1:3000 dilution in TBST) per well. Incubate 30-45 min. at room temperature, with shaking. • 16. Wash as described in 4, above. • 17. Add 100 μl Biosource Goat anti-rabbit IgG peroxidase conjugate (1:2000 dilution in TBST) to each well. Incubate 30 min. at room temperature, with shaking. • 18. Wash as described in 4, above. • 19. Add 100 μl of ABTS/H2O2 solution to each well. • 20. Incubate 5 to 10 minutes with shaking. Remove any bubbles. • 21. If necessary stop reaction with the addition of 100 μl 1 0.2 M HCl per well. • 22. Read assay on Dynatech MR7000 ELISA reader. Test Filter: 410 nM Reference Filter: 630 Nm.

T1 sequence (P09619 33-1106): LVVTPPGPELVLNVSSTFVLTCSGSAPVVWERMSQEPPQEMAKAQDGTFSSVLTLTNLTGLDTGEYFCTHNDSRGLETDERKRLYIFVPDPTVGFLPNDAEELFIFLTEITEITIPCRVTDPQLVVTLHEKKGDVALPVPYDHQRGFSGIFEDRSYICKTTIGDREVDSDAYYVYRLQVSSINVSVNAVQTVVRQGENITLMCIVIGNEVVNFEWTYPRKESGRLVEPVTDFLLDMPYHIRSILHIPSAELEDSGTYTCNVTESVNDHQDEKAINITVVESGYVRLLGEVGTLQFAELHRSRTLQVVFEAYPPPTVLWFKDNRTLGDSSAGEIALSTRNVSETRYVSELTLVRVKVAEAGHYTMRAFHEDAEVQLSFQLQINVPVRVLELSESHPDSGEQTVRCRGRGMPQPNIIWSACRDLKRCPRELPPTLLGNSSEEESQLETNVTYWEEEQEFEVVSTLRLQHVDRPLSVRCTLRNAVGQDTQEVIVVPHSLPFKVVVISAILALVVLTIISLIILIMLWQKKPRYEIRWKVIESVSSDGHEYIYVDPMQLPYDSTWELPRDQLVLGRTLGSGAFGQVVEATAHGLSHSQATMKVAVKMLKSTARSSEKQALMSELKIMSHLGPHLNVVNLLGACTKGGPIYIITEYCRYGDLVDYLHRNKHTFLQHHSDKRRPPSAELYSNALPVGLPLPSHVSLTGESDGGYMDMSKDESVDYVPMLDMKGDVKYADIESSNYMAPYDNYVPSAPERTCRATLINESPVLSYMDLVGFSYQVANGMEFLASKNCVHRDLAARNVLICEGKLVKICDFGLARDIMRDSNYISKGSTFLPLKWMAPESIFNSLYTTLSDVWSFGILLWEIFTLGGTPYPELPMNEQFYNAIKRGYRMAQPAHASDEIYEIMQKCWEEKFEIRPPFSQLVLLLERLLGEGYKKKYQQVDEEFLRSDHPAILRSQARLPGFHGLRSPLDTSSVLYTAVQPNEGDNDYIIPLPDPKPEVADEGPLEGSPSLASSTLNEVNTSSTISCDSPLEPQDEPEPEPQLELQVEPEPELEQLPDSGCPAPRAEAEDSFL

| SMILES | IC50 (PDGFR-β) [µM] | IC50 (EGFR) [µM] |
| --- | --- | --- |
| CCOC(=O)c1c(C)[nH]c(/C=C2\C(=O)Nc3ccc(OC)cc32)c1CCCN1CCCC1 [Example 127, 5-(5-Methoxy-2-oxo-1,2-dihydroindol-3-ylidenemethyl)-2-methyl-4-(3-pyrrolidin-1-ylpropyl)-1H-pyrrole-3-carboxylic acid ethyl ester] | 0.96 | – |
| CCOC(=O)c1c(C)[nH]c(/C=C2\C(=O)Nc3ccc(C(=O)O)cc32)c1CCCN1CCN(C)CC1 [Compound 129, 3-{4-Ethoxycarbonyl-5-methyl-3-(3-(4-methyl-piperazin-1-yl)-propyl]-1H-pyrrol-2-ylmethylene)-2-oxo-2,3-dihydro-1H-indole-5-carboxylic acid] | 31.7 | – |
| CCOC(=O)c1c(C)[nH]c(/C=C2\C(=O)Nc3ccc(C(=O)O)cc32)c1CCCN1CCOCC1 [Example 125, 3-[4-Ethoxycarbonyl-5-methyl-3-(3-morpholin-4-ylpropyl)-1H-pyrrol-2-ylmethylene]-2-oxo-2,3-dihydro-1H-indole-5-carboxylic acid] | 5.73 | – |
| CCOC(=O)c1c(C)[nH]c(/C=C2\C(=O)Nc3ccc(C(=O)O)cc32)c1CCCN1CCCC1 [Example 128, 3-[4-Ethoxycarbonyl-5-methyl-3-(3-pyrrolidin-1-ylpropyl)-1H-pyrrol-2-ylmethylene]-2oxo-2,3-dihydro-1H-indole-5-carboxylic acid] | 17.1 | – |

More lines, now with the values ahead:

| IC50 (PDGFR-β) [µM] | IC50 (EGFR) [µM] | SMILES |
| --- | --- | --- |
| 4.88 | – | CCOC(=O)c1c(C)[nH]c(/C=C2\C(=O)Nc3ccc(C(=O)O)cc32)c1CCCN(C)C [Example 134, 3-[3-(3-Dimethylaminopropyl)-4-ethoxycarbonyl-5-methyl-1H-pyrrol-2-ylmethylene]-2-oxo-2,3-dihydro-1H-indole-5-carboxylic acid] |
| 84.6 | > 100 | O=C(O)CCc1c(C=C2C(=O)Nc3cc(N4CCOCC4)ccc32)[nH]c2c1CCCC2 [Example 209, 3-[2-(6-Morpholin-4-yl-2-oxo-1,2-dihydroindol-3-ylidenemethyl)-4,5,6,7-tetrahydro-1H-indol-3-yl]-propionic acid] |
| 0.5 | 0.19 | CCOC(=O)c1c(C)[nH]c(/C=C2\C(=O)Nc3cccc(CCO)c32)c1CCCN(C)C [Example 135, 4-(3-Dimethylaminopropyl)-5-[4-(2-hydroxyethyl)-2-oxo-1,2-dihydroindol-3-ylidenemethyl]-2-methyl-1H-pyrrole-3-carboxylic acid ethyl ester] |
